Laboratory results taken from patent US20240124460A1, “METHODS AND COMPOSITIONS FOR TARGETED PROTEIN DEGRADATION” (Ranok Therapeutics (Hangzhou) Co. Ltd., priority 2020, published 2024).
Read-outs that look alike come from different tables or passages of the source.

What was measured:
[1] = test system: ERBB2; experiment: ERBB2 (HER2) flow cytometry protein degradation assay in BT-474 cells; assay type: cell-based, human; settings: DC50, BT-474 cells, 24 hr
Procedure, shortened: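 BT-474 cells trypsinised after compound treatment and stained with PE-conjugated anti-ERBB2 antibody, 30 min at 25° C in the dark, then fixed in 1% paraformaldehyde for flow cytometry. % inhibition = 100−(D−B)/(S−B)*100, using treated, untreated-stained and unstained cell fluorescence.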

[2] = biological target: T1, HSP90α protein (Homo sapiens, UniProt P07900); experiment: HSP90α-binding FP (BODIPY) assay; settings: FP competition with BODIPY-labeled RNK04010
T1 construct: purchased BPS Bioscience #50298
Procedure, shortened: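 Fluorescence polarization measured competition with N-terminal human HSP90α, using either FITC-geldanamycin or BODIPY-labelled triazolone RNK04010 as tracer (5 nM final each). Compounds were tested in 2.5-fold dilutions from 20 μM to 5.2 nM, with incubation at 25 °C for 120 min (FITC) or 300 min (BODIPY).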

[3] = biological target: T2, MAPK7 (Homo sapiens, UniProt Q13164); experiment: MAPK7 Western blot protein degradation assay in U-87 MG cells; assay type: cell-based; set-up: U-87 MG human glioblastoma cells, which express MAPK7; endogenous in cells; host or cells: U-87 MG; settings: 48 hr
Procedure, shortened: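 U-87 MG glioblastoma cells treated with compounds at various concentrations for 48 h at 37 °C. MAPK7 (ERK5) levels in protein-normalized lysates measured by Western blot with β-actin as loading reference, quantified by fluorescence imaging.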

[4] = biological target: T2, MAPK7; experiment: MAPK7 kinase assay (ADP-Glo); assay type: biochemical; set-up: purchased Carna Biosciences #04-146; settings: ATP 340 μM
Description: The inhibition of MAPK7 kinase activity by test compounds was measured by the ADP-Glo Kinase Assay (Promega, #V6930), following the manufacturer's instructions, except as noted. 3-fold serial dilutions of each test compound were prepared ranging from 50 μM to 2.54 nM. Also, as a positive control, a 4-fold serial dilution of the MAPK7 inhibitor, XMD17-109 (MedChemExpress, #HY-15665) was prepared ranging from 10 μM to 0.04 nM. In brief, in 384-well plates, test compounds were added to the kinase reaction mix containing recombinant MAPK7 protein (Carna Biosciences, #04-146; 20 nM final concentration), myelin basic protein (SignalChem Biotech, #M42-54G; 0.1 mg/ml final concentration) and ATP (340 μM final concentration), then mixed by shaking and incubated with ADP-Glo Reagent and Kinase Detection Reagent. Luminescence was measured on a BioTek plate reader.
Lumpositive: The average ratio for 10 wells of positive controls (10 μM XMD17-109) across the plate.
Lumvehicle: The average ratio for 10 wells of negative controls (0.5% DMSO) across the plate.

[5] = test system: MV-4-11 human acute myeloid leukemia; experiment: MV-4-11 CCK-8 proliferation assay; assay type: cell-based; settings: MV-4-11 cells, 72 hr
Procedure, shortened: (§1)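 Lines were maintained according to ATCC guidance. Compounds were then applied as a 3-fold titration from 20 μM to 1.02 nM, and proliferation was measured by CCK-8 absorbance, normalised to DMSO controls minus a no-cell blank.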

[6] = test system: U-87 MG human glioblastoma; experiment: U87 MG CCK-8 proliferation assay; assay type: cell-based; settings: U-87 MG cells, read-out: U87MG CCK-8
Procedure, shortened: as §1

T2 sequence (Q13164 whole entry): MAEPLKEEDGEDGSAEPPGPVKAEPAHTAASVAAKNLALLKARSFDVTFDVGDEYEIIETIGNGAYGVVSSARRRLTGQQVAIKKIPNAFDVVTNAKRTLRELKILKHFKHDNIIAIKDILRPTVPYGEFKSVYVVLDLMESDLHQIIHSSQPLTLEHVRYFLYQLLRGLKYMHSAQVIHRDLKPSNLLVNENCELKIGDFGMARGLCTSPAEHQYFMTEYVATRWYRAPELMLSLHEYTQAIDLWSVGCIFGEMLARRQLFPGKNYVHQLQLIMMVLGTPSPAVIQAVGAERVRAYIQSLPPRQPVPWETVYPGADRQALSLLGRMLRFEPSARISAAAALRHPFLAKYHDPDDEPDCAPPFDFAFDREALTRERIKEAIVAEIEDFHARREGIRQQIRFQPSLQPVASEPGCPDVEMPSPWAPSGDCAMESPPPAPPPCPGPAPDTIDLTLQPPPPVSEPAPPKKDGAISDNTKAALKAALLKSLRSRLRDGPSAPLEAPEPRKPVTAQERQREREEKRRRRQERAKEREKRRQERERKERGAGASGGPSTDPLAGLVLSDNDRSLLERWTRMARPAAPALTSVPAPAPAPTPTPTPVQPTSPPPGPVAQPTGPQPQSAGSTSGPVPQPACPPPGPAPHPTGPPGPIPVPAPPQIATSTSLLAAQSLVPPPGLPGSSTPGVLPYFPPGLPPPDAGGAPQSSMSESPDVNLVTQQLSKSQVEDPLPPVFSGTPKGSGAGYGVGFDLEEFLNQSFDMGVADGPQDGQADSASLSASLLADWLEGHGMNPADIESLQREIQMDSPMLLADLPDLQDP

IC50 [2] | MAPK7 degradation (30 nM) ([3]; 30 nM) | MAPK7 degradation (100 nM) ([3]; 100 nM) | MAPK7 degradation (1000 nM) ([3]; 1000 nM) | IC50 [4] | EC50 ([5]; Homo sapiens, MV4-11) | EC50 ([6]; Homo sapiens, U-87 MG, 72 h) | Compound | ERBB2 degradation [1] | EC50 [5] | EC50 ([6]; 72 hr)
100 to 1000 nM | C (< 33% degradation) | B (33-66% degradation) | A (>66% degradation) | > 1000 nM | < 100 nM | < 100 nM | CCOc1cc(N2CCC(C(=O)N3CCN(Cc4ccc(-n5c(O)nnc5-c5cc(C(C)C)c(O)cc5O)cc4)CC3)CC2)ccc1Nc1ncc2c(n1)N(C)c1ccccc1C(=O)N2C [Compound 024, 2-((4-(4-(4-(4-(3-(2,4-dihydroxy-5-isopropylphenyl)-5-hydroxy-4H-1,2,4-triazol-4-yl)benzyl)piperazine-1-carbonyl)piperidin-1-yl)-2-ethoxyphenyl)amino)-5,11-dimethyl-5,11-dihydro-6H-benzo[e]pyrimido[5,4-b][1,4]diazepin-6-one] | B (DC50 = 100-1000 nM) |  | 
< 100 nM |  |  |  | > 1000 nM |  |  | CCOc1cc(N2CCC(C(=O)N3CCC(N4CCN(Cc5ccc(-n6c(O)nnc6-c6cc(C(C)C)c(O)cc6O)cc5)CC4)CC3)CC2)ccc1Nc1ncc2c(n1)N(C)c1ccccc1C(=O)N2C.Cl [Compound 042, 2-((4-(4-(4-(4-(4-(3-(2,4-dihydroxy-5-isopropylphenyl)-5-hydroxy-4H-1,2,4-triazol-4-yl)benzyl)piperazin-1-yl)piperidine-1-carbonyl)piperidin-1-yl)-2-ethoxyphenyl)amino)-5,11-dimethyl-5H-benzo[e]pyrimido[5,4-b][1,4]diazepin-6(11H)-one] | B (DC50 = 100-1000 nM) | < 100 nM | < 100 nM
100 to 1000 nM |  |  |  | > 1000 nM | < 100 nM | 100 to 1000 nM | CCOc1cc(N2CCC(C(=O)N3CCN(Cc4ccc(-n5c(O)nnc5-c5cc(C(C)C)c(O)cc5O)cc4)CC3)CC2)ccc1N(C)c1ncc2c(n1)N(C)c1ccccc1C(=O)N2C [Compound 047, 2-((4-(4-(4-(4-(3-(2,4-dihydroxy-5-isopropylphenyl)-5-hydroxy-4H-1,2,4-triazol-4-yl)benzyl)piperazine-1-carbonyl)piperidin-1-yl)-2-ethoxyphenyl)(methyl)amino)-5,11-dimethyl-5,11-dihydro-6H-benzo[e]pyrimido[5,4-b][1,4]diazepin-6-one] | B (DC50 = 100-1000 nM) |  | 
< 100 nM |  |  |  | < 100 nM | < 100 nM | < 100 nM | CCNC(=O)c1nnc(-c2cc(CC)c(O)cc2O)n1-c1ccc(CN2CCN(CC3CCN(C(=O)C4CCN(c5ccc(Nc6ncc7c(n6)N(S(C)(=O)=O)c6ccccc6C(=O)N7C)c(OCC)c5)CC4)CC3)CC2)cc1.Cl [Compound 096, 4-(4-((4-((1-(1-(3-ethoxy-4-((5-methyl-11-(methylsulfonyl)-6-oxo-6,11-dihydro-5H-benzo[e]pyrimido[5,4-b][1,4]diazepin-2-yl)amino)phenyl)piperidine-4-carbonyl)piperidin-4-yl)methyl)piperazin-1-yl)methyl)phenyl)-N-ethyl-5-(5-ethyl-2,4-dihydroxyphenyl)-4H-1,2,4-triazole-3-carboxamide] | B (DC50 = 100-1000 nM) |  | 
< 100 nM |  |  |  | > 1000 nM | < 100 nM | < 100 nM | CCOc1cc(N2CCC(C(=O)N3CCC(CN4CCN(Cc5ccc(-n6c(O)nnc6-c6cc(C(C)C)c(O)cc6O)cc5)CC4)CC3)CC2)ccc1N(CC)c1ncc2c(n1)N(S(C)(=O)=O)c1ccccc1C(=O)N2C [Compound 099, 2-((4-(4-(4-((4-(4-(3-(2,4-dihydroxy-5-isopropylphenyl)-5-hydroxy-4H-1,2,4-triazol-4-yl)benzyl)piperazin-1-yl)methyl)piperidine-1-carbonyl)piperidin-1-yl)-2-ethoxyphenyl)(ethyl)amino)-5-methyl-11-(methylsulfonyl)-5,11-dihydro-6H-benzo[e]pyrimido[5,4-b][1,4]diazepin-6-one] | B (DC50 = 100-1000 nM) |  | 
> 1000 nM |  |  |  | > 1000 nM | 100 to 1000 nM | > 1000 nM | CCOc1cc(N2CCC(C(=O)NCCOCCNC(=O)O[C@H]3CC[C@H](Nc4cc(-n5nc(C(F)(F)F)c6c5CC(C)(C)CC6=O)ccc4C(N)=O)CC3)CC2)ccc1Nc1ncc2c(n1)N(C)c1ccccc1C(=O)N2C [Compound 103, (1R,4R)-4-((2-carbamoyl-5-(6,6-dimethyl-4-oxo-3-(trifluoromethyl)-4,5,6,7-tetrahydro-1H-indazol-1-yl)phenyl)amino)cyclohexyl (2-(2-(1-(4-((5,11-dimethyl-6-oxo-6,11-dihydro-5H-benzo[e]pyrimido[5,4-b][1,4]diazepin-2-yl)amino)-3-ethoxyphenyl)piperidine-4-carboxamido)ethoxy)ethyl)carbamate] | C (DC50 > 1000 nM) |  | 
> 1000 nM |  |  |  | > 1000 nM | 100 to 1000 nM | > 1000 nM | CCOc1cc(N2CCC(C(=O)NCCOCCNC(=O)O[C@H]3CC[C@H](Nc4cc(-n5nc(C(F)(F)F)c6c5CC(C)(C)CC6=O)ccc4C(N)=O)CC3)CC2)ccc1Nc1ncc2c(n1)N(S(C)(=O)=O)c1ccccc1C(=O)N2C [Compound 105, (1R,4R)-4-((2-carbamoyl-5-(6,6-dimethyl-4-oxo-3-(trifluoromethyl)-4,5,6,7-tetrahydro-1H-indazol-1-yl)phenyl)amino)cyclohexyl (2-(2-(1-(3-ethoxy-4-((5-methyl-11-(methylsulfonyl)-6-oxo-6,11-dihydro-5H-benzo[e]pyrimido[5,4-b][1,4]diazepin-2-yl)amino)phenyl)piperidine-4-carboxamido)ethoxy)ethyl)carbamate] | C (DC50 > 1000 nM) |  | 
100 to 1000 nM |  |  |  | > 1000 nM | < 100 nM | 100 to 1000 nM | CCOc1cc(N2CCC(C(=O)N3CCC(CN4CCN(Cc5ccc(-n6c(C(=O)NC(C)C(F)(F)F)nnc6-c6cc(CC)c(O)cc6O)cc5)CC4)CC3)CC2)ccc1N(CC)c1ncc2c(n1)N(S(C)(=O)=O)c1ccccc1C(=O)N2C (stereo not drawn) [Compound 115, 4-(4-((4-((1-(1-(3-ethoxy-4-(ethyl(5-methyl-11-(methylsulfonyl)-6-oxo-6,11-dihydro-5H-benzo[e]pyrimido[5,4-b][1,4]diazepin-2-yl)amino)phenyl)piperidine-4-carbonyl)piperidin-4-yl)methyl)piperazin-1-yl)methyl)phenyl)-5-(5-ethyl-2,4-dihydroxyphenyl)-N-(1,1,1-trifluoropropan-2-yl)-4H-1,2,4-triazole-3-carboxamide] | B (DC50 = 100-1000 nM) |  | 

Compound | IC50 [2] | MAPK7 degradation (30 nM) ([3]; 30 nM) | MAPK7 degradation (100 nM) ([3]; 100 nM) | MAPK7 degradation (1000 nM) ([3]; 1000 nM) | IC50 [4] | EC50 ([5]; Homo sapiens, MV4-11) | EC50 ([6]; Homo sapiens, U-87 MG, 72 h) | ERBB2 degradation [1] | EC50 [5] | EC50 ([6]; 72 hr)
(1R,4R)-4-((2-((12-azanylidene)-l3-methyl)-5-(6,6-dimethyl-4-oxo-3-(trifluoromethyl)-4,5,6,7-tetrahydro-1H-indazol-1-yl)phenyl)amino)cyclohexyl (2-(2-(1-(3-ethoxy-4-(ethyl(5-methyl-11-(methylsulfonyl)-6-oxo-6,11-dihydro-5H-benzo[e]pyrimido[5,4-b][1,4]diazepin-2-yl)amino)phenyl)piperidine-4-carboxamido)ethoxy)ethyl)carbamate [Compound 113] | > 1000 nM |  |  |  | > 1000 nM |  |  |  | > 1000 nM | > 1000 nM
(1R,4R)-4-((2-cyano-5-(6,6-dimethyl-4-oxo-3-(trifluoromethyl)-4,5,6,7-tetrahydro-1H-indazol-1-yl)phenyl)amino)cyclohexyl (2-(2-(1-(4-((5,11-dimethyl-6-oxo-6,11-dihydro-5H-benzo[e]pyrimido[5,4-b][1,4]diazepin-2-yl)amino)-3-ethoxyphenyl)piperidine-4-carboxamido)ethoxy)ethyl)carbamate [Compound 109] | > 1000 nM |  |  |  | > 1000 nM |  |  |  | > 1000 nM | > 1000 nM
